Laboratory results: ChEMBL document CHEMBL4387726, “Design and synthesis of novel tellurodibenzoic acid compounds as kidney-type glutaminase (KGA) inhibitors” (Bioorg Med Chem Lett, 2019)

Tests used:
[1] = Inhibition of human KGA assessed as reduction in glutamate formation using glutamine as substrate pretreated with 0.5 hr followed by substrate addition and measured after 4 hrs by KGA/GDH coupled assay
[2] = Inhibition of Escherichia coli GDH using glutamate as substrate pre treated with 1 hr followed by substrate addition and measured after 1 hr
[3] = Inhibition of Escherichia coli TrxR pre treated with 0.5 hr followed by DTNB addition and measured after 1 hr
HCT-116 = assay: Antiproliferative activity against human HCT116 cells assessed as reduction in cell viability after 5 days by EZMTT assay; assay type: functional, cell-based; conditions: HCT-116, 120 h
[4] = Stability of the compound in basic (NH3.H2O) solution at 37 degC for 24 hrs by HPLC analysis; assay type: physicochemical
[5] = Stability of the compound in oxidative (H2O2) solution at 37 degC for 24 hrs by HPLC analysis; assay type: physicochemical
[6] = Stability of the compound in acidic (HCOOH) solution at 37 degC for 24 hrs by HPLC analysis; assay type: physicochemical
[7] = Stability of the compound in nucleophilic (beta-ME) solution at 37 degC for 24 hrs by HPLC analysis; assay type: physicochemical
[8] = Stability of the compound in nucleophilic (DTT) solution at 37 degC for 24 hrs by HPLC analysis; assay type: physicochemical
[9] = Stability of the compound in nucleophilic (lysine) solution at 37 degC for 24 hrs by HPLC analysis; assay type: physicochemical

Compound	IC50 [1] [µM]	IC50 [2] [µM]	IC50 [3] [µM]	EC50 (HCT-116) [µM]	Stability [4]	Stability [5]	Stability [6]	Stability [7]	Stability [8]	Stability [9]
CCOC(=O)c1cc(Br)ccc1[Te]c1ccc(Br)cc1C(=O)OCC	> 66.7	> 66.7	> 66.7	> 50	–	–	–	–	–	–
O=C(O)c1ccccc1[Te]c1ccccc1C(=O)O	7	> 66.7	> 66.7	17.8	–	–	–	–	–	–
O=C(O)c1cc(O)ccc1[Te]c1ccc(O)cc1C(=O)O	6.3	> 66.7	> 66.7	18	–	–	–	–	–	–
COc1ccc(C(=O)O)c([Te]c2cc(OC)ccc2C(=O)O)c1	11.3	> 66.7	> 66.7	7.5	–	–	–	–	–	–
CCNC(=O)c1cc(Br)ccc1[Te]c1ccc(Br)cc1C(=O)NCC	62.8	> 66.7	> 66.7	> 50	–	–	–	–	–	–
COC(=O)c1cc(Br)ccc1[Te]c1ccc(Br)cc1C(=O)OC	> 66.7	> 66.7	> 66.7	> 50	–	–	–	–	–	–
O=C(O)c1cc(Br)ccc1[Te]c1ccc(Br)cc1C(=O)O	2.4	> 66.7	> 66.7	5	Stable	Stable	Stable	Unstable	Unstable	Unstable
COc1cccc(C(=O)O)c1[Te]c1c(OC)cccc1C(=O)O	> 66.7	> 66.7	> 66.7	> 50	–	–	–	–	–	–
Cc1ccc([Te]c2ccc(C)cc2C(=O)O)c(C(=O)O)c1	10.2	> 66.7	> 66.7	16.9	–	–	–	–	–	–
O=C(Nc1ccccc1)c1cc(Br)ccc1[Te]c1ccc(Br)cc1C(=O)Nc1ccccc1	> 66.7	> 66.7	> 66.7	> 50	–	–	–	–	–	–
O=C(OCc1ccccc1)c1cc(Br)ccc1[Te]c1ccc(Br)cc1C(=O)OCc1ccccc1	> 66.7	> 66.7	> 66.7	> 50	–	–	–	–	–	–
O=C(O)c1cc(I)ccc1[Te]c1ccc(I)cc1C(=O)O	7.4	> 66.7	> 66.7	25.6	–	–	–	–	–	–
COc1ccc([Te]c2ccc(OC)cc2C(=O)O)c(C(=O)O)c1	7.8	> 66.7	> 66.7	10.2	–	–	–	–	–	–
CNC(=O)c1cc(Br)ccc1[Te]c1ccc(Br)cc1C(=O)NC	> 66.7	> 66.7	> 66.7	> 50	–	–	–	–	–	–
